How the values were obtained:
[1] = tested on: PC12 cells; experiment: In-vitro neuroprotection-I (H2O2 injury, MTT); type: cell-based; conditions: Rattus norvegicus, PC-12, 48 h compound, then 200 μM H2O2 24 h, MTT survival rate
Description: All samples were made into 60 mM stock solution by DMSO, which were 200 times diluted to 300 μM by medium. And the final concentration was further diluted into different concentrations by media.
Control: Normal cell-plating and same cell medium as other group. 24 hours later, the medium was discarded. Incubate the cell in new media for 24 hours. No compound and hydrogen peroxide treatment. Other steps were the same as the sample test as mentioned below did.
Blank: no cell plating, cell medium, and other steps were the same as the sample test as mentioned below did.
(§1) After resuscitating, the PC12 cells were cultured in RPMI-1640 containing 10% horse serum and 5% Fetus Bovine Serum (FBS) under 5% CO2 at 37° C. for two weeks. The medium was changed every other day. The compounds were diluted into solutions of 12.5, 25, 50, 100, 200, 300 μM with culture medium (except that examples 33-45 with additional solutions of 400 μM and 500 μM). The PC 12 cells were seeded into a 96-well plate at a density of 8×10^3 cells/well and cultured in a 37° C., 5% CO2 incubator for 24 hours. Removed the medium, the cells were added with the compound solutions of different concentrations as test solutions for another 48 h incubation in a 37° C., 5% CO2 incubator. After the incubation, apart from the blank and control groups, the wells (including 0 μM drug group) were added to the medium-prepared 200 μM H2O2, and continued for another 24 h incubation in a 37° C., 5% CO2 incubator.
After the incubation, the wells were added with 20 μL 5 mg/mL MTT and incubated for 4 hours at 37° C. Carefully removed the medium and added 150 μL DMSO. The plates were placed on an enzyme-labeled instrument and vibrated for 5 min. The absorbance Atest solution were obtained at 490 nm with the Ablank of the well without cells and the Acontrol of the well with untreated cells. The survival rate of the cells in every well by the formula survival rate (%)=(Atest solution−Ablank)/(Acontrol−Ablank)*100%.

[2] = Cytotoxic test (MTT); type: cell-based; conditions: rat, PC12 cells, 48 h incubation
Description: as §1, with “(except” for “(except that”, “PC12” for “PC 12”, “1.2×10^4” for “8×10^3”, “Remove” for “Removed”, “incubator.” for “incubator. After the incubation, apart from the blank and control groups, the wells (including 0 μM drug group) were added to the medium-prepared 200 μM H2O2, and continued for another 24 h incubation in a 37° C., 5% CO2 incubator.”
After the incubation, the wells were added with 20 μL 5 mg/mL MTT and incubated for 4 hours at 37° C. Carefully removed the medium and added 150 μL DMSO. The plates were placed on an enzyme-labeled instrument and vibrated for 5 min. The absorbance Atest solution were obtained at 490 nm with the Ablank of the well without cells and the Acontrol of the well with untreated cells. The survival rates of the cells in every well were calculated by the formula as Survival rate (%)=(Atest solution−Ablank)/(Acontrol−Ablank)*100%

[3] = tested on: MCAO model (middle cerebral artery ischemia-reperfusion); experiment: In vivo drug efficacy test of MCAO model; conditions: SD rats, MCAO 2 h then reperfusion, tail vein infusion 30 min; for Cerebral infarction area (%): TTC staining, infarct area to whole brain area; for Improvements of nerve function (%): score at 24 h versus model control

Structure (SMILES)	EC50 [1] [µM]	IC50 at 48 h [2] [µM]	Cerebral infarction area (%) [3] [%]	Improvements of nerve function (%) [3] [%]
CC(=O)OC(C)Oc1cc(C)nn1-c1ccccc1 (centres unmarked) [Compound 1]	66.4	–	–	–
Cc1cc(OC(C)OC(=O)C(C)C)n(-c2ccccc2)n1 (centres unmarked) [Compound 3, 1-(3-methyl-1-phenylpyrazole) oxyethyl isobutyrate]	98	> 300	–	–
Cc1cc(OC(C)OC(=O)C(C)(C)C)n(-c2ccccc2)n1 (centres unmarked) [Compound 4, 1-(3-methyl-1-phenylpyrazole) oxyethyl pivalate]	69.5	> 300	–	–
CCCCCCCC(=O)OC(C)Oc1cc(C)nn1-c1ccccc1 (centres unmarked) [Compound 5, 1-(3-methyl-1-phenylpyrazole)oxyethyl octanoate]	–	> 300	–	–
CCCCCCCCCCCCCCCCCC(=O)OC(C)Oc1cc(C)nn1-c1ccccc1 (centres unmarked) [Compound 6]	56.8	–	–	–
Cc1cc(OC(C)OC(=O)c2ccccc2)n(-c2ccccc2)n1 (centres unmarked) [Compound 7, 1-(3-methyl-1-phenylpyrazole) oxyethyl benzoate]	88.9	> 300	–	–
Cc1cc(OC(C)OC(=O)Cc2ccccc2)n(-c2ccccc2)n1 (centres unmarked) [Compound 8]	100	–	–	–
Cc1cc(OC(C)OC(=O)CCCc2ccccc2)n(-c2ccccc2)n1 (centres unmarked) [Compound 9, 1-(3-methyl-1-phenylpyrazole)oxyethyl phenylbutyrate]	120	> 300	19.8	16.0
Cc1cc(OC(C)OC(=O)C2CC2)n(-c2ccccc2)n1 (centres unmarked) [Compound 10]	55.7	–	–	–
Cc1cc(OC(C)OC(=O)C2CCCCC2)n(-c2ccccc2)n1 (centres unmarked) [Compound 12]	89	–	–	–
Cc1cc(OCOC(=O)C(C)(C)C)n(-c2ccccc2)n1 [Compound 13, (3-methyl-1-phenylpyrazol-5-) oxymethyl pivalate]	110	252	17.5	17.2
Cc1cc(OCOC(=O)C(C)C)n(-c2ccccc2)n1 [Compound 14, (3-methyl-1-phenylpyrazol-5-) oxymethyl isobutyrate]	45.2	–	–	–
CCCCCCCC(=O)OCOc1cc(C)nn1-c1ccccc1 [Compound 15, (3-methyl-1-phenylpyrazol-5-) oxymethyl octanoate]	67.2	–	20.0	15.9
Cc1cc(OCOC(=O)CCCc2ccccc2)n(-c2ccccc2)n1 [Compound 16, (3-methyl-1-phenylpyrazol-5-) oxymethyl phenylbutyrate]	48	234	19.9	16.2
Cc1cc(OCOC(=O)c2cccnc2)n(-c2ccccc2)n1 [Compound 17, (3-methyl-1-phenylpyrazol-5-) oxymethyl nicotinate]	94.9	> 300	–	–
Cc1cc(OCOC(=O)c2ccccc2)n(-c2ccccc2)n1 [Compound 18, (3-methyl-1-phenylpyrazol-5-) oxymethyl benzoate]	75	> 300	–	–
Cc1cc(OCOC(=O)c2ccccc2O)n(-c2ccccc2)n1 [Compound 19, (3-methyl-1-phenylpyrazol-5-) oxymethyl-(2-hydroxy) benzoate]	–	> 300	–	–
CCOC(=O)Oc1ccccc1C(=O)OCOc1cc(C)nn1-c1ccccc1 [Compound 21, (3-methyl-1-phenylpyrazole-5-) oxymethyl-(2-ethoxycarbonyloxy) benzoate]	82.1	–	–	–
Cc1cc(OCOC(=O)c2ccccc2OC(=O)C(C)C)n(-c2ccccc2)n1 [Compound 22, (3-methyl-1-phenylpyrazol-5-)oxymethyl-(2-isobutyryloxy)benzoic acid]	103	–	–	–

Structure (SMILES)	EC50 [1] [µM]	IC50 at 48 h [2] [µM]	Cerebral infarction area (%) [3] [%]	Improvements of nerve function (%) [3] [%]
Cc1cc(OCOC(=O)c2cccc(N(C)C)c2O)n(-c2ccccc2)n1 [Compound 23, (3-methyl-1-phenylpyrazol-5-) oxymethyl-(2-hydroxy-3-N,N-dimethyl)benzoate]	124	–	–	–
CCOC(=O)Oc1ccc(N(C)C)cc1C(=O)OCOc1cc(C)nn1-c1ccccc1 [Compound 25, (3-methyl-1-phenylpyrazole-5-) oxymethyl-(2-ethoxycarbonyloxy-5-N,N-dimethyl)benzoic Acid]	59.3	> 300	–	–
CC(=O)OCOc1cc(C)nn1-c1ccccc1 [Compound 26]	54.8	> 300	–	–
Cc1cc(OCOC(=O)C2CC2)n(-c2ccccc2)n1 [Compound 28]	85.9	–	–	–
Cc1cc(OCOC(=O)C2CCCCC2)n(-c2ccccc2)n1 [Compound 30]	77.2	–	–	–
Cc1cc(OCOC(=O)Cc2ccccc2)n(-c2ccccc2)n1 [Compound 31]	91.2	–	–	–
CCCCCCCCCCCCCCCCCC(=O)OCOc1cc(C)nn1-c1ccccc1 [Compound 32]	80.7	> 300	–	–
CC(=O)NCOc1cc(C)nn1-c1ccccc1 [Compound 41, N-((1-phenyl-3-methyl-1H-pyrazol-5-yl)oxy) methylacetamide]	55.1	–	–	–
CCC(=O)NCOc1cc(C)nn1-c1ccccc1 [Compound 42, N-((1-phenyl-3-methyl-1H-pyrazol-5-yl)oxy) methyl propionamide]	75.4	> 300	19.7	15.9
Cc1cc(OCNC(=O)C(C)C)n(-c2ccccc2)n1 [Compound 43, N-((1-phenyl-3-methyl-1H-pyrazol-5-yl)oxy) methylisobutyramide]	58.1	–	19.8	16.1
Cc1cc(OCNC(=O)C(C)(C)C)n(-c2ccccc2)n1 [Compound 44, N-((1-phenyl-3-methyl-1H-pyrazol-5-yl)oxy) methyltrimethylacetamide]	77.9	–	–	–
Cc1cc(OCNC(=O)C2CC2)n(-c2ccccc2)n1 [Compound 45, N-((1-phenyl-3-methyl-1H-pyrazol-5-yl)oxy) methylcyclopropylformamide]	75.3	–	–	–
Cc1cc(OCNC(=O)C2CCCC2)n(-c2ccccc2)n1 [Compound 46, N-((1-phenyl-3-methyl-1H-pyrazol-5-yl)oxy) methylcyclopentylformamide]	90.1	–	–	–
Cc1cc(OCNC(=O)C2CCCCC2)n(-c2ccccc2)n1 [Compound 47, N-((1-phenyl-3-methyl-1H-pyrazol-5-yl)oxy) methylcyclohexanecarboxamide]	53.6	269	–	–
Cc1cc(OCNC(=O)c2ccccc2)n(-c2ccccc2)n1 [Compound 48, N-((1-phenyl-3-methyl-1H-pyrazol-5-yl)oxy) methylbenzamide]	123	–	–	–
Cc1cc(OCNC(=O)Cc2ccccc2)n(-c2ccccc2)n1 [Compound 49, N-((1-phenyl-3-methyl-1H-pyrazol-5-yl)oxy) methylphenylacetamide]	–	> 300	–	–
Cc1cc(OCNC(=O)CCCc2ccccc2)n(-c2ccccc2)n1 [Compound 50, N-((1-phenyl-3-methyl-1H-pyrazol-5-yl)oxy) methylphenylbutyramide]	101	–	–	–
CCCCCCCCCCCCCCCCCC(=O)NCOc1cc(C)nn1-c1ccccc1 [Compound 52, N-((1-phenyl-3-methyl-1H-pyrazol-5-yl)oxy)methyl stearamide]	78.6	–	–	–
